Results reported in US20220133747A1, “ESTROGEN RECEPTOR INHIBITORS AND USES THEROF” (The Regents of the University of California, priority 2018, published 2022).
“Also recorded” adds a separate entry of the source.

Legend:
4T1 tumors = test: 4T1 tumor progression in syngeneic BALB/c mice; assay type: in vivo; conditions: SERD128 50 mg/kg oral gavage, fulvestrant 5 mg/mouse subcutaneous once a week, anti-PD-L1 100 μg every third day, 10-12 days
Experimental: Ovariec-tomized 6-wk-old female BALC/c mice supplemented with E2 pellets (0.36 mg/60 day release pellet) were implanted SC with 2.5×10^5 4T1 cells. After tumors reached approx. 200 mm3, mice were randomized and treated with control vehicle (CON), 100 μg of anti-PD-L1 (antibody clone 10F.9G2, BioXCell) Q3 days (PD-L1), 50 mg/kg SERD128 by oral gavage (SERD128) or combined antibody+SERD (PD-L1+SERD128). Tumors were measured Q3 days, with tumor volume calculated as V=(W(2)×L)/2), with mean+SE (*P<0.05, **P<0.01 vs CON).
FIGS. 23A-23C show estrogen effects on ERα negative tumor growth in vitro and in vivo. […] Female 6-wk-old BALB/c mice, either ovariectomized (ovx) or sham-operated (intact), were inoculated s.c. with 2×10^5 4T1 TNBC cells. Tumor growth was then assessed every 3 days, with tumor volume calculated as V=(l×w×w)/2. ****P≤0.0001. […] 4T1 cells were grown in the presence (+E2) or absence (−E2) of estradiol-17β and increasing concentrations of SERD128 at 10 nM (128-10), 100 nM (128-100) or 1000 nM (128-1000). Cell proliferation was assessed using the Incucyte S3 Live-Cell Analysis system with pictures obtained every 4-6 hours. […] Ovariectomized 6-week-old female syngeneic BALB/c mice were primed with estradiol-17β slow-release pellets prior to tumor cell inoculation. After three days, 4T1 cells were injected in the 4th mammary fat pad (2×10^5 cells). After tumors reached ˜200 mm^3 mice were randomized and treated with control vehicle (CON), […] of anti-PD-L1 antibody every 3rd day (PD-L1 Ab), 50 mg/kg SERD128 via oral gavage (SERD128), and combinations of antibody and SERD128 (SERD128+PD-L1 Ab). Tumors were measured every 3 days, and tumor volume was calculated as V=(W(2)×L)/2). **P<0,01, ****P<0.0001 as compared to control group. n=11-12.
In further studies to determine the effects of antiestrogen treatment alone or in combination with anti-PD-L1 antibody on murine tumor progression in vivo, ovariectomized 6-week-old female syngeneic BALB/c mice were used (Jackson Laboratory). […] Tumors were measured every 3-4 days, and tumor volume was calculated as above. […]

[1] = clinic; cited from earlier work
ERα = biological target: T1, ERα (Homo sapiens, UniProt P03372); test: Downregulation of ER protein, PAGE and Western immunoblot in MCF-7 cells; assay type: cell-based; conditions: 100 nM, 4 hours, phenol-red free medium without FBS
T1 construct: endogenous in cells; host or cells: MCF-7 human breast cancer cells (ATCC)
T1 sequence (P03372 1-595): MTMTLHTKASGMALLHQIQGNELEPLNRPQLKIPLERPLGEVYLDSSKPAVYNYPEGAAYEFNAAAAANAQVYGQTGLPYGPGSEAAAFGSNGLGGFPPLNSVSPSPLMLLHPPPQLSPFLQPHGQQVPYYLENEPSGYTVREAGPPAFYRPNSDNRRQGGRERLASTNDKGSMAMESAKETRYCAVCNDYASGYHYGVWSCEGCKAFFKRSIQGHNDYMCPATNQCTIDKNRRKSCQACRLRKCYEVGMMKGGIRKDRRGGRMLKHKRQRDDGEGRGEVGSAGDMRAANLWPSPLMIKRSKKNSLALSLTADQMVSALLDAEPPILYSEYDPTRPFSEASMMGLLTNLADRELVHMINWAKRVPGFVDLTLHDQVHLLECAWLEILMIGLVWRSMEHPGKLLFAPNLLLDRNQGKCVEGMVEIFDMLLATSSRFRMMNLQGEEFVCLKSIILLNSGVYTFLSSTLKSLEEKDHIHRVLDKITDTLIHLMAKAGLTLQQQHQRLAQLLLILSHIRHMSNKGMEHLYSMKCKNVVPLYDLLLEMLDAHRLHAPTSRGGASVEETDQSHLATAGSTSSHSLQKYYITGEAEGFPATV
Experimental: FIGS. 20A-20C show biologic activity of selected SERD candidates. […] ER-positive MCF-7 cells were treated in phenol-red free RPMI 1640 without FBS and containing vehicle control (CON) or 100 nM concentrations of either fulvestrant (FX) or antiestrogens 105, 109, 121, 140, 151, 160 or SERD128 in vitro. After 4 hours, cells were harvested and processed for PAGE and Western immunoblots using ERα antibody (1D5, Thermofisher Scientific). RPL13A was used as a loading control. […] Cells were dosed with either E2 alone or with SERDs combined with E2 in phenol redfree medium with 0.1% dextran-coated charcoal-treated FBS in luminometer plates. Data are presented as relative light units (RLU) relative to that of E2 alone in three replicate assays (4 wells per replicate) f SEM. Treatment with E2 alone induced a 12-fold induction of ER-dependent luciferase activity quantified as RLU relative to vehicle control-treated samples.
MCF7 cells were plated in regular medium. After 24 hrs, cells were incubated in the presence of antiestrogens or fulvestrant for 4 hrs in phenol-red free medium without FBS. Cell lysates were prepared using RIPA buffer, and protein concentration was determined using the BCA Protein Assay Kit (PIERCE/ThermoFisher Scientific). Forty micrograms of total cell protein was resolved by 4-15% SDS-PAGE, transferred to a PVDF membrane and probed with antibody directed against ERα (1D5, 1:100, ThermoFisher cat #MA5-13191). RPL13A (dilution 1:1000, Invitrogen/ThermoFisher cat #PA5-58528) was used as loading control.

MCF-7/TMR cells = test: Cell proliferation assay, MCF-7 with tamoxifen resistance; assay type: cell-based, human; conditions: 10 nM with 2 nM estradiol-17β, 48 hr

| Compound | 4T1 tumor progression (tumor volume) (4T1 tumors) | bioavailability [1] | downregulation of ER protein (ERα protein levels) (ERα) | downregulation of ER protein (ERα protein levels) (ERα; listed as 128) | cell proliferation (% of estradiol-treated controls) (MCF-7/TMR cells) | 4T1 tumor progression (tumor volume) (4T1 tumors; 50 mg/kg) | 4T1 tumor progression (tumor volume) (4T1 tumors; listed as S128) |
| --- | --- | --- | --- | --- | --- | --- | --- |
| C[C@]12CC[C@@H]3c4ccc(O)cc4C[C@@H](CCCCCCCCC[S+]([O-])CCCC(F)(F)C(F)(F)F)[C@H]3[C@@H]1CC[C@@H]2O (stereo partly shown) [fulvestrant, reference compound] | effective in inhibition of 4T1 tumor growth in vivo | very low bioavailability | – | – | – | – | – |
| C[C@]12C[C@H](Oc3ccc(N)c(C(F)(F)F)c3)[C@@H]3c4ccc(O)cc4CC[C@H]3[C@@H]1CC[C@@H]2O [SERD128, (8S,9S,11S,13S,14S,17S)-11-(4-Amino-3-(trifluoromethyl)phenoxy)-13-methyl-7,8,9,11,12,13,14,15,16,17-decahydro-6H-cyclopenta[a]phenanthrene-3,17-diol] | – | – | comparable to that of the pure antiestrogen fulvestrant | most effective in reducing ER protein levels; also recorded: comparable to that of fulvestrant | significantly blocked proliferation; also recorded: antiproliferative action | inhibits breast cancer growth in vivo; also recorded: effective in inhibition of 4T1 tumor growth in vivo; also recorded: significant suppression of 4T1 tumor progression in vivo | elicits inhibition of 4T1 TNBC progression in vivo |
